Tests used:
Type in all cases: in vivo
[1] = system: Anthonomus grandis; test: Spray test on young transgenic cotton plants, action against Anthonomus grandis adults; conditions: for control of the tested insects in the non-transgenic plant (% action): non-transgenic cotton, spray mixture of active ingredient and conventional CryIIIA-toxin, each 100, 50, 10, 5, 1 ppm, 3 to 10 days; for control of the tested insects in the transgenic plant (% action): spray 100, 50, 10, 5, 1 ppm, evaluation 3 to 10 days, compared with treated non-transgenic cotton
Source text: (§1) Young transgenic cotton plants which express the δ-endotoxin CryIIIA are sprayed with an aqueous emulsion spray mixture comprising 100, 50, 10, 5, 1 ppm of profenofos respectively. After the spray coating has dried on, the cotton plants are populated with 10 adult Anthonomus grandis, 10 Spodoptera littora larvae or 10 Heliothis virescens larvae respectively and introduced into a plastic container. Evaluation takes place 3 to 10 days later. The percentage reduction in population, or the percentage reduction in feeding damage (% action), is determined by comparing the number of dead beetles and the feeding damage on the transgenic cotton plants with that of non-transgenic cotton plants which have been treated with an emulsion spray mixture comprising lufenuron and conventional CryIIIA-toxin at a concentration of in each case 100, 50, 10, 5, 1 ppm respectively.
as §1, with “pymetrozine” for “lufenuron”
as §1, with “express tho” for “express the”, “δ-endotoxin CryIa (c)” for “δ-endotoxin CryIIIA”, “of fenoxycarb” for “of profenofos”, “comprising fenoxycarb” for “comprising lufenuron”, “and con-ventional” for “and conventional”
as §1, with “δ-endotoxin CryIa(c)” for “δ-endotoxin CryIIIA”, “of fenoxycarb” for “of profenofos”, “comprising fenoxycarb” for “comprising lufenuron”
(§2) Young transgenic cotton plants which express the δ-endotoxin CryIa(c) are sprayed with an aqueous emulsion spray mixture comprising 100, 50, 10, 5, 1 ppm of pymetrozine respectively. After the spray coating has dried on, the cotton plants are populated with 10 adult Anthonomus grandis, 10 Spodoptera littora larvae or 10 Heliothis virescens larvae respectively and introduced into a plastic container. Evaluation takes place 3 to 10 days later. […]

[2] = system: Heliothis virescens; test: Spray test on young transgenic cotton plants, action against Heliothis virescens larvae; conditions: for control of the tested insects in the non-transgenic plant (% action): non-transgenic cotton, spray mixture of active ingredient and conventional CryIIIA-toxin, each 100, 50, 10, 5, 1 ppm, 3 to 10 days; for control of the tested insects in the transgenic plant (% action): spray 100, 50, 10, 5, 1 ppm, evaluation 3 to 10 days, compared with treated non-transgenic cotton
Source text: as §1
as §1, with “pymetrozine” for “lufenuron”
as §1, with “express tho” for “express the”, “δ-endotoxin CryIa (c)” for “δ-endotoxin CryIIIA”, “of fenoxycarb” for “of profenofos”, “comprising fenoxycarb” for “comprising lufenuron”, “and con-ventional” for “and conventional”
as §1, with “δ-endotoxin CryIa(c)” for “δ-endotoxin CryIIIA”, “of fenoxycarb” for “of profenofos”, “comprising fenoxycarb” for “comprising lufenuron”
as §2

[3] = system: Ostrinia nubilalis; test: Plot test on maize cv. KnockOut vs conventional maize, action against Ostrinia nubilalis; conditions: natural infestation; for control on the plants of plot (a) (% action): plot (a) maize cv. KnockOut, spray 200, 100, 50, 10, 5, 1 ppm, evaluation 6 days later; for control level, plot (b): plot (b) conventional maize, spray 200, 100, 50, 10, 5, 1 ppm plus same ppm of the endotoxin expressed by KnockOut, 6 days
Procedure: (§3) A plot (a) planted with maize cv. KnockOut® and an adjacent plot (b) of the same size which is planted with conventional maize, both showing natural infestation with Ostrinia nubilalis, Spodoptera sp or Heliothis, are sprayed with an aqueous emulsion spray mixture comprising 200, 100, 50, 10, 5, 1 ppm of fenoxycarb . Immediately afterwards, plot (b) is treated with an emulsion spray mixture comprising 200, 100, 50, 10, 5, 1 ppm of the endotoxin expressed by KnockOut®. Evaluation takes place 6 days later. The percentage reduction in population (% action) is determined by comparing the number of dead pests on the plants of plot (a) with that on the plants of plot (b).
as §3, with “pymetrozine.” for “fenoxycarb .”
(§4) A plot (a) planted with maize cv. KnockOut® and an adjacent plot (b) of the same size which is planted with conventional maize, both showing natural infestation with Ostrinia nubilalis. Spodoptera sp or Heliothis, are sprayed with an aqueous emulsion spray mixture comprising 200, 100, 50, 10, 5, 1ppm of lufenuron. Immediately afterwards, plot (b) is treated with an emulsion spray mixture comprising 200, 100, 50, 10, 5, 1 ppm of the endotoxin expressed by KnockOut®. Evaluation takes place 6 days later. The percentage reduction in population (% action) is determined by comparing the number of dead pests on the plants of plot (a) with that on the plants of plot (b).

[4] = system: Spodoptera littoralis; test: Spray test on young transgenic cotton plants, action against Spodoptera littoralis larvae; conditions: for control of the tested insects in the non-transgenic plant (% action): non-transgenic cotton, spray mixture of active ingredient and conventional CryIIIA-toxin, each 100, 50, 10, 5, 1 ppm, 3 to 10 days; for control of the tested insects in the transgenic plant (% action): spray 100, 50, 10, 5, 1 ppm, evaluation 3 to 10 days, compared with treated non-transgenic cotton
Source text: as §1
as §1, with “pymetrozine” for “lufenuron”
as §1, with “express tho” for “express the”, “δ-endotoxin CryIa (c)” for “δ-endotoxin CryIIIA”, “of fenoxycarb” for “of profenofos”, “comprising fenoxycarb” for “comprising lufenuron”, “and con-ventional” for “and conventional”
as §1, with “δ-endotoxin CryIa(c)” for “δ-endotoxin CryIIIA”, “of fenoxycarb” for “of profenofos”, “comprising fenoxycarb” for “comprising lufenuron”
as §2

[5] = system: Spodoptera spp.; test: Plot test on maize cv. KnockOut vs conventional maize, action against Spodoptera spp.; conditions: natural infestation; for control on the plants of plot (a) (% action): plot (a) maize cv. KnockOut, spray 200, 100, 50, 10, 5, 1 ppm, evaluation 6 days later; for control level, plot (b): plot (b) conventional maize, spray 200, 100, 50, 10, 5, 1 ppm plus same ppm of the endotoxin expressed by KnockOut, 6 days
Procedure: as §3
as §3, with “pymetrozine.” for “fenoxycarb .”
as §4

[6] = system: Heliothis spp.; test: Plot test on maize cv. KnockOut vs conventional maize, action against Heliothis spp.; conditions: natural infestation; for control on the plants of plot (a) (% action): plot (a) maize cv. KnockOut, spray 200, 100, 50, 10, 5, 1 ppm, evaluation 6 days later; for control level, plot (b): plot (b) conventional maize, spray 200, 100, 50, 10, 5, 1 ppm plus same ppm of the endotoxin expressed by KnockOut, 6 days
Procedure: as §3
as §3, with “pymetrozine.” for “fenoxycarb .”
as §4

[7] = system: Aphis gossypii; test: Transgenic vs conventional cotton seedlings, action against Aphis gossypii; conditions: 20° C.; for control on the plants of plot (a) (% action): spray 400 ppm, evaluated after 3 and 6 days; for control level, plot (b): plot (b) conventional cotton seedlings, 3 and 6 days
Procedure: (§5) Cotton seedlings on a plot (a) expressing the δ-endotoxin CryllIa on a plot (a) and conven-tional cotton seedlings on a plot (b) are infected with Aphis gossypi and subsequently sprayed with a spray mixture comprising 400 ppm pymetrozine. immediately afterwards, plot (b) is treated with an emulsion spray mixture comprising 400 ppm of the δ-endotoxin Crylila. The seedlings of plot (a) and (b) are then incubated at 20° C. The test is evaluated after 3 and 6 days.
(§6) The percentage reduction in population (% action) is determined by comparing the number of dead pests on the plants of plot (a) with that on the plants of plot (b).
as §5, with “seedlings” for “seedlings on a plot (a)”, “CryIA(c)” for “CryllIa”, “conventional” for “conven-tional”, “gossypii” for “gossypi”, “Immediately” for “immediately”, “[…].” for “Crylila.”

[8] = system: Frankliniella occidentalis; test: Transgenic vs conventional cotton seedlings, action against Frankliniella occidentalis; conditions: 20° C.; for control on the plants of plot (a) (% action): spray 400 ppm, evaluated after 3 and 6 days; for control level, plot (b): plot (b) conventional cotton seedlings, 3 and 6 days
Procedure: (§7) Cotton seedlings expressing the δ-endotoxin Crylila on a plot (a) and conventional cotton seedlings on a plot (b) are infected with Frankliniella occidentalis and subsequently sprayed with a spray mixture comprising 400 ppm lufenuron. Immediately afterwards, plot (b) is treated with an emulsion spray mixture comprising 400 ppm of the S-endotoxin CrylIla. The seedlings of plot (a) and (b) are then incubated at 20° C. The test is evaluated after 3 and 6 days.
as §6
as §7, with “CryIa(c)” for “Crylila”, “δ-endotoxin CryIa(c).” for “S-endotoxin CrylIla.”

[9] = transgenic cotton expressing δ-endotoxin CryIa(c)
[10] = plot (a) cotton seedlings expressing δ-endotoxin CryIa(c)
[11] = transgenic cotton expressing δ-endotoxin CryIIIA

SMILES	control of the tested insects in the non-transgenic plant (% action) [1]	control of the tested insects in the transgenic plant (% action) [1, 9]	control of the tested insects in the non-transgenic plant (% action) [2]	control of the tested insects in the transgenic plant (% action) [2, 9]	control on the plants of plot (a) (% action) [3]	control level, plot (b) [3] [%]	control of the tested insects in the non-transgenic plant (% action) [4]	control of the tested insects in the transgenic plant (% action) [4, 9]	control on the plants of plot (a) (% action) [5]	control level, plot (b) [5] [%]	control on the plants of plot (a) (% action) [6]	control level, plot (b) [6] [%]	other results
CCOC(=O)NCCOc1ccc(Oc2ccccc2)cc1 [fenoxycarb, Ethyl 2-(4-Phenoxyphenoxy)ethylcarbamat]	insufficient	superior	insufficient	superior	Improved control	≤ 60	insufficient	superior	Improved control	≤ 60	Improved control	≤ 60	–
CC1=NNC(=O)N(N=Cc2cccnc2)C1 [pymetrozine, 2,3,4,5-Tetrahydro-3-oxo-4-[(pyridin-3-yl)-methylenamino]-6-methyl-1,2,4-triazin]	insufficient	superior	insufficient	superior	Improved control	≤ 60	insufficient	superior	Improved control	≤ 60	Improved control	≤ 60	control on the plants of plot (a) (% action) [7, 10]: Improved control; control on the plants of plot (a) (% action) ([7]; plot (a) cotton seedlings expressing δ-endotoxin CryllIa): Improved control; control level, plot (b) ([7]; spray 400 ppm plus 400 ppm of δ-endotoxin Crylila): ≤ 60%; control level, plot (b) ([7]; spray 400 ppm plus 400 ppm of δ-endotoxin Crylla): ≤ 60%
O=C(NC(=O)c1c(F)cccc1F)Nc1cc(Cl)c(OC(F)(F)C(F)C(F)(F)F)cc1Cl (centres unmarked) [lufenuron]	insufficient	superior	insufficient	superior	Improved control	≤ 60	insufficient	superior	Improved control	≤ 60	Improved control	≤ 60	control on the plants of plot (a) (% action) [8, 10]: Improved control; control on the plants of plot (a) (% action) ([8]; plot (a) cotton seedlings expressing δ-endotoxin Crylila): Improved control; control level, plot (b) ([8]; spray 400 ppm plus 400 ppm of endotoxin CrylIla): ≤ 60%; control level, plot (b) ([8]; spray 400 ppm plus 400 ppm of δ-endotoxin CryIa(c)): ≤ 60%
CCCSP(=O)(OCC)Oc1ccc(Br)cc1Cl (centres unmarked) [profenofos, O-4-Brom-2-chlorphenyl O-Ethyl S-Propyl Phosphorothioat]	–	–	–	–	–	–	–	–	–	–	–	–	control of the tested insects in the transgenic plant (% action) [1, 11]: superior; control of the tested insects in the transgenic plant (% action) [2, 11]: superior; control of the tested insects in the transgenic plant (% action) [4, 11]: superior
